Results on six compounds are retold here after patent publication US12263248B2, “Compounds and compositions for intracellular delivery of therapeutic agents” (ModernaTX, Inc., priority 2018, dated 2025).

Data set [1] is described as follows: Clinical chemistry and hematology in rat, 2 mpk i.v., 48 h. It is filed as in vivo. Particulars: intravenous, 48 h post dose. The procedure:
Sample formulations of nanoparticle compositions including different lipids were administered intravenously to rat at a dose of 2 mpk. The expression of various clinical markers was evaluated at 48 h post dose and compared to that induced by administration of MC3 formulations or phosphate buffered saline (PBS).

Data set [2] relates to hEPO mRNA. The data set can be described thus: hEPO expression and pharmacokinetic parameters in non-human primates. In kind it is in vivo, Cynomolgus monkeys. Particulars: hEPO, 0.01 mpk i.v. infusion, non-human primates. The procedure:
The tolerability and efficacy of nanoparticle compositions to non-human primates was also investigated using a sample formulation including Compound 18. The formulation was prepared according to the standard MC3 formulation described above and included an hEPO mRNA. Primates were administered a single dose of 0.05 (Group 1), 0.3 (Group 2), or 1.0 (Group 3) mpk via intravenous infusion for 60 minutes. Three primates were administered each dose. Expression of hEPO was measured prior to dosing and at 2, 6, 24, 48, and 96 hours post-treatment (Table 26). Table 28 includes levels of indicators of complement activation, while Table 29 includes cytokine induction data.
The tolerability and efficacy of nanoparticle compositions to non-human primates was also investigated using sample formulations including Compounds 18, 25, 26, and 48 and MC3 to determine if these compounds are differentiated in terms of protein expression. The formulations were prepared according to the standard MC3 formulation described above and included an hEPO mRNA. Table 30 includes details of the compositions tested, while Table 31 summarizes the relative expression of Luc and hEPO mRNA in mice and rats. Expression was measured 6 hours after administration.
As is evident in the figure, expression was highest 6 hours post administration for all formulations tested, and was highest for those formulations including Compound 18.
NHP studies: Nonhuman primate studies were conducted using naïve cynomolgus monkeys (cynos), 2-4 years old, weighing 2-6 kg. No treatment randomization or blinding methods were used for any of the animal studies. Sample sizes were determined by the resource equation method. For injection, mRNA-LNPs in phosphate buffered saline (PBS) were administered by 60-minute intravenous infusion using a temporary indwelling catheter inserted in a peripheral vein.
hEPO ELISA for NHP samples: Human Epo levels were measured using a human erythropoietin immunoassay. Cytokines levels were measured using a non-human primate cytokine kit. […]

As for `CCCCCC/C=C\COC(=O)CCCCCCCN(CCO)CCCCCCCC(=O)OC(CCCCCCCC)CCCCCCCC` [Compound 24, Heptadecan-9-yl (Z)-8_((2-hydroxyethyl) (8-(non-2-en-1-yloxy)-8-oxooctyl)amino)octanoate], in data set [1], the “Concentration Alanine aminotransferase” value is 51.5, the “Concentration Aspartate aminotransferase” value was determined as 90, the “Concentration Lymphocytes” value is listed as 14100 and the “Concentration Monocytes” value came out at 1834. Also, the “Concentration Neutrophils” value in data set [1] is on record as 1790.5.
Consider `CCCCCCCCC(C)OC(=O)CCCCCCCN(CCO)CCCCCCCC(=O)OC(CCCCCCCC)CCCCCCCC` (centres unmarked) [Compound 48, decan-2-yl 8-((8-(heptadecan-9-yloxy)-8-oxooctyl)(2-hydroxyethyl)amino)octanoate], for which the “AUC Lipid/MC3 Ratio” value in data set [2] worked out at 0.9.
In the case of `CCCCCCCCCCCOC(=O)CCCCCN(CCO)CCCCCCCC(=O)OC(CCCCCCCC)CCCCCCCC` [Compound 25, Heptadecan-9-yl 8-((2-hydroxyethyl)(6-oxo-6-(undecyloxy)hexyl)amino)octanoate], the “AUC Lipid/MC3 Ratio” value in data set [2] worked out at 3.3. In data set [1], the “Concentration Alanine aminotransferase” value is 52, the “Concentration Aspartate aminotransferase” value is reported as 124.5, the “Concentration Lymphocytes” value is on record as 15924 and the “Concentration Monocytes” value is recorded as 2122. Further, the “Concentration Neutrophils” value in data set [1] came out at 1998.
On to `CCCCCCCCCN(CCO)CCCCCCCC(=O)OC(CCCCCCCC)CCCCCCCC` [Compound 3, Heptadecan-9-yl 8-((2-hydroxyethyl)(nonyl)amino)octanoate], for which, in data set [1], the “Concentration Alanine aminotransferase” value turned out to be 53.5, the “Concentration Aspartate aminotransferase” value was 87.5, the “Concentration Lymphocytes” value came to 12051 and the “Concentration Monocytes” value stood at 2103. For the same compound, the “Concentration Neutrophils” value in data set [1] was 3388.5.
On the same counts, the results for `CCCCCCCCCOC(=O)CCCCCCCN(CCO)CCCCCCCOC(=O)C(CCCCCCCC)CCCCCCCC` [Compound 30, 7-((2-Hydroxyethyl)(8-(nonyloxy)-8-oxooctyl)amino)heptyl 2-octyldecanoate] are 56, 95, 10408.5, 877 and 3195.
Consider `CCCCCCCCCOC(=O)CCCN(CCO)CCCCCCCC(=O)OC(CCCCCCCC)CCCCCCCC` [Compound 26, Heptadecan-9-yl 8-((2-hydroxyethyl)(4-(nonyloxy)-4-oxobutyl)amino) octanoate], for which the “AUC Lipid/MC3 Ratio” value in data set [2] turned out to be 1.3.
